Results published in patent US7385088B1, “Compounds from Antrodia camphorata” (Golden Biotechnology Corporation, priority 2007, dated 2008).
In brackets after ≈: the same amount, converted by molar mass.

Experiments:
Assay type in all cases: cell-based
LNCaP = test: MTT survival assay, prostate cancer cells LNCaP; settings: Homo sapiens, androgen-dependent prostate cancer cells, 48 hours
Source text: (§1) Therefore Antroquinonol B and Antroquinonol C can be used in inhibiting cancer cell growth of breast cancer, lung cancer, hepatic cancer, and prostate cancer, which can further be applied in cancer treatment of breast cancer, lung cancer, hepatic cancer, prostate cancer and the like. The details of the examples are described as follows:
(§2) MTT assay is commonly used to determine cell proliferation, percent of viable cells, and cytotoxicity. 3-[4,5-dimethylthiazol-2-yl]2,5-diphenyltetrazolium bromide (MTT) is a yellow dye, which can be absorbed by the living cells and be reduced to purplish blue formazan crystals by succinate tetrazolium reductase in mitochondria. Formazan formation can therefore be used to assess and determine the survival rate of cells.
(§3) The NCI anti-cancer drug screen model was also employed to test the anti-cancer effect of the Antroquinonols in the present invention. Antroquinonol B and Antroquinonol C isolated from example 2 were added into the culture media of human prostate cancer cells, LNCaP or DU-145, and prostate cancer cell survival rates were analyzed with the abovementioned MTT assay. […]
(§4) The human prostate-cancer cells, LNCaP and DU-145, were cultivated in media containing fetal calf serum for 24 hours. […] The plates were read on an ELISA reader at wavelength of 570 nm to determine the survival rates.

DU-145 = test: MTT survival assay, prostate cancer cells DU-145; settings: Homo sapiens, androgen-independent prostate cancer cells, 48 hours
Source text: as §1, §2, §3, §4

MDA-MB-231 = test: MTT survival assay, breast cancer cells MDA-MB-231; settings: Homo sapiens, estrogen-independent breast cancer cells, 48 hours
Source text: (§5) Therefore Antroquinonol B and Antroquinonol C can be used in inhibiting cancer cell growth of breast cancer, lung cancer, hepatic cancer, and prostate cancer, which can further be applied in cancer treatment of breast cancer, lung cancer, hepatic cancer, prostate cancer and the like. The details of the examples are described as follows: The NCI anti-cancer drug screen model was adopted to test the anti-cancer effect of the isolated compounds from example 1 in the present invention. The isolated Antroquinonol B and Antroquinonol C from example 1 were added into the culture media of human breast-cancer cells, MCF-7 or MDA-MB-231, to test for tumor cell survival. This survival assay was carried out with the widely known MTT (3-[4,5-dimethylthiazol-2-yl]2,5-diphenyltetrazolium bromide) assay. MCF-7 cell line is originated from primary breast cancer cells (early stage), sensitive to estrogen and therefore is estrogen-dependent, while MDA-MB-231 is insensitive to estrogen and therefore is estrogen-independent, which is a difficult tumor with a low survival rate. MTT assay is commonly used to determine cell proliferation, percent of viable cells, and cytotoxicity. […] The plates were read on an ELISA reader at wavelength of 570 nm to determine the survival rates.

MCF-7 = test: MTT survival assay, breast cancer cells MCF-7; settings: Homo sapiens, MCF7, estrogen-dependent breast cancer cells, 48 hours
Source text: as §5

A549 = test: MTT survival assay, lung cancer cells A549; settings: Homo sapiens, 48 hours
Source text: Therefore Antroquinonol B and Antroquinonol C can be used in inhibiting cancer cell growth of breast cancer, lung cancer, hepatic cancer, and prostate cancer, which can further be applied in cancer treatment of breast cancer, lung cancer, hepatic cancer, prostate cancer and the like. The details of the examples are described as follows: MTT assay is commonly used to determine cell proliferation, percent of viable cells, and cytotoxicity. 3-[4,5-dimethylthiazol-2-yl]2,5-diphenyltetrazolium bromide (MTT) is a yellow dye, which can be absorbed by the living cells and be reduced to purplish blue formazan crystals by succinate tetrazolium reductase in mitochondria. Formazan formation can therefore be used to assess and determine the survival rate of cells. The NCI anti-cancer drug screen model was also employed to test the anti-lung cancer effect of the Antroquinonol B and Antroquinonol C in the present invention. The Antroquinonols isolated from example 1 were added into the culture media of human lung cancer cell A549 with the abovementioned MTT assay to analyze lung cancer cell survival rates. Human lung cancer cell A549 was obtained from the Bioresources Collection and Research Center (BCRC) of the Food Industry Research and Development Institute with an accession number of BCRC 60074. […] The plates were read on an ELISA reader at wavelength of 570 nm to determine the survival rates.

Hep3B = test: MTT survival assay, hepatic cancer cells Hep 3B; settings: Homo sapiens, 48 hours
Source text: (§6) Therefore Antroquinonol B and Antroquinonol C can be used in inhibiting cancer cell growth of breast cancer, lung cancer, hepatic cancer, and prostate cancer, which can further be applied in cancer treatment of breast cancer, lung cancer, hepatic cancer, prostate cancer and the like. The details of the examples are described as follows: MTT assay is commonly used to determine cell proliferation, percent of viable cells, and cytotoxicity. 3-[4,5-dimethylthiazol-2-yl]2,5-diphenyltetrazolium bromide (MTT) is a yellow dye, which can be absorbed by the living cells and be reduced to purplish blue formazan crystals by succinate tetrazolium reductase in mitochondria. Formazan formation can therefore be used to assess and determine the survival rate of cells. The NCI anti-cancer drug screen model was employed to test the anti-cancer effect of the Antroquinonol B and Antroquinono C in the present invention. The Antroquinonos isolated from example 1 were added into the culture media of human hepatic-cancer cells, Hep 3B or Hep G2, for tumor cell survival assay. Hepatic-cancer cells Hep 3B (BCRC 60434) and Hep G2 (BCRC 60025), were obtained from the Bioresources Collection and Research Center (BCRC) of the Food Industry Research and Development Institute. […] The plates were read on an ELISA reader at wavelength of 570 nm to determine the survival rates.

HepG2 = test: MTT survival assay, hepatic cancer cells Hep G2; settings: Homo sapiens, 48 hours
Source text: as §6

Structure (SMILES) | IC50 (LNCaP) | IC50 (DU-145) | IC50 (MDA-MB-231) | IC50 (MCF-7) | IC50 (A549) | IC50 (Hep3B) | IC50 (HepG2)
COC1=C(OC)[C@H](O)[C@H](C/C=C(\C)CC/C=C(/C)C/C=C/C(C)(C)OC)[C@@H](C)C1=O [Antroquinonol C] | 8.72 µg/mL (≈ 20.7 µM) | 12.2 µg/mL (≈ 29 µM) | 21.9 µg/mL (≈ 52.1 µM) | 1.17 µg/mL (≈ 2.78 µM) | 8.21 µg/mL (≈ 19.5 µM) | 1.32 µg/mL (≈ 3.14 µM) | 5.12 µg/mL (≈ 12.2 µM)
COC1=C(OC)[C@H](O)[C@H](C/C=C(\C)CC/C=C(/C)C/C=C/C(C)(C)O)[C@@H](C)C1=O [Antroquinonol B] | 5.67 µg/mL (≈ 13.9 µM) | 10.1 µg/mL (≈ 24.9 µM) | 8.72 µg/mL (≈ 21.4 µM) | 1.94 µg/mL (≈ 4.77 µM) | 11.9 µg/mL (≈ 29.3 µM) | 1.21 µg/mL (≈ 2.98 µM) | 3.32 µg/mL (≈ 8.17 µM)
